The text below walks through data of ChEMBL document CHEMBL1743341, “Cytochrome p450 enzymes mechanism based inhibitors: common sub-structures and reactivity” (Curr Drug Metab, 2005).

Data set [1] concerns the target T1, Cytochrome P450 2E1 (Rattus norvegicus, UniProt P05182). Briefly: Mechanism based inhibition of rat cytochrome P450 CYP2E1. The data set is classed as ADME.
The target of data set [2] is CYP2E1 (Rattus norvegicus, UniProt P05182). Briefly: (§1) Mechanism based inhibition of rat cytochrome P450 CYP2E1 measured by P-nitrophenol (PNP) hydroxylase activity. The data set is classed as ADME. The following applies: rat, probe p-nitrophenol (PNP hydroxylase activity).
Data set [3] addresses T1, Cytochrome P450 2E1. The description is as §1. The data set is classed as ADME.
The target in data set [4] is T2, CYP2B11 (Canis lupus familiaris, UniProt P24460). As to the kind of experiment: (§2) Mechanism based inhibition of dog cytochrome P450 CYP2B11 measured by Diazepam N1-demethylation using liver microsomes. The data set is classed as ADME, Microsome. As to conditions: dog, liver microsomes, probe diazepam (N1-demethylation).
The target in data set [5] is T3, Cytochrome P450 2B11 (Canis lupus familiaris, UniProt P24460). The description is as §2. The data set is classed as ADME, Microsome.
Data set [6] concerns the target T2, CYP2B11. Briefly: (§3) Mechanism based inhibition of dog cytochrome P450 CYP2B11 measured by Diazepam N1-demethylation using recombinant enzyme. The data set is classed as ADME. As to conditions: dog, recombinant CYP2B11, probe diazepam (N1-demethylation).
Data set [7] deals with T3, Cytochrome P450 2B11. The data set is described as §3. The data set is classed as ADME.
Data set [8] addresses Cytochrome P450 3A12 (Canis lupus familiaris, UniProt P24463). Briefly: Mechanism based inhibition of dog cytochrome P450 CYP3A12. The data set is classed as ADME.
Data set [9] has as its target CYP1A1 (Homo sapiens, UniProt P04798). Briefly: (§4) Mechanism based inhibition of human cytochrome P450 1A1 measured by 7-ethoxyresorufin O-deethylation (EROD). The following applies: human, probe 7-ethoxyresorufin (O-deethylation, EROD). The data set is classed as ADME.
Data set [10] has as its target T4, Cytochrome P450 1A1 (Homo sapiens, UniProt P04798).
T4 sequence (P04798 whole entry): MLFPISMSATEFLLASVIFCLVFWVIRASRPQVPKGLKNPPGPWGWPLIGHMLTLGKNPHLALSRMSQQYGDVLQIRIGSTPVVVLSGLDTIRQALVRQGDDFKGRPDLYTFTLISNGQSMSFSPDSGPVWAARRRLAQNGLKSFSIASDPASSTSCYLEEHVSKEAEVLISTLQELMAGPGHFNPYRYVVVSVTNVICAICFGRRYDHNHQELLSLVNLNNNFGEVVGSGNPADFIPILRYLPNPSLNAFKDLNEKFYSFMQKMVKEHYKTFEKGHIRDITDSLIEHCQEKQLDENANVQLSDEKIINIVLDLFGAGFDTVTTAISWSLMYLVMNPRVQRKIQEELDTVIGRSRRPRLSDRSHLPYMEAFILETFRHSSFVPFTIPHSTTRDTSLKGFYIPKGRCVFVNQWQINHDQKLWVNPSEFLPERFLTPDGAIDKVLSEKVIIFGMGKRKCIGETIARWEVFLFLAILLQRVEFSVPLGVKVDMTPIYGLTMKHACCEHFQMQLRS
The description is as §4. The data set is classed as ADME.

The target of data set [11] is T5, Cytochrome P450 1A2 (Homo sapiens, UniProt P05177).
T5 sequence (P05177 whole entry): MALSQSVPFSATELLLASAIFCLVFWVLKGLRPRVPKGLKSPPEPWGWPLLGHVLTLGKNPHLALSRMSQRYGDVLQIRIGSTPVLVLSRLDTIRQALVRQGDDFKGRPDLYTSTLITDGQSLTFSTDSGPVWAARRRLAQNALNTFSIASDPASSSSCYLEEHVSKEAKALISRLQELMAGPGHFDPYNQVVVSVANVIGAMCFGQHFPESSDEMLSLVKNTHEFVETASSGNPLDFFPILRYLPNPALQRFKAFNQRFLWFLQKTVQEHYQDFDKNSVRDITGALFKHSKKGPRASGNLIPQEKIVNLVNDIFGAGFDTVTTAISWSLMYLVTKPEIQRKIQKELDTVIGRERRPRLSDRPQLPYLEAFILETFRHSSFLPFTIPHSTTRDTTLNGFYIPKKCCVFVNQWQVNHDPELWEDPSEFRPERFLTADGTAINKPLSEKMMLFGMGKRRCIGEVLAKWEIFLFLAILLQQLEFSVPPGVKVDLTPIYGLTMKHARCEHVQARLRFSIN
As to the kind of experiment: Mechanism based inhibition of human cytochrome P450 1A2 measured by 7-ethoxyresorufin O-deethylation (EROD). The data set is classed as ADME.

In data set [12] the target is T6, CYP1A2 (Homo sapiens, UniProt P05177).
T6 sequence (P05177 whole entry): T5 sequence (P05177 whole entry)
As to the kind of experiment: (§5) Mechanism based inhibition of human cytochrome P450 1A2 measured by 7-methoxyresorufin O-demethylation (MROD). The data set is classed as ADME. As to conditions: human, probe 7-methoxyresorufin (O-demethylation, MROD).

In data set [13] the target is T5, Cytochrome P450 1A2. Described as §5. The data set is classed as ADME.
Data set [14] addresses T7, Cytochrome P450 1B1 (Homo sapiens, UniProt Q16678).
T7 sequence (Q16678 whole entry): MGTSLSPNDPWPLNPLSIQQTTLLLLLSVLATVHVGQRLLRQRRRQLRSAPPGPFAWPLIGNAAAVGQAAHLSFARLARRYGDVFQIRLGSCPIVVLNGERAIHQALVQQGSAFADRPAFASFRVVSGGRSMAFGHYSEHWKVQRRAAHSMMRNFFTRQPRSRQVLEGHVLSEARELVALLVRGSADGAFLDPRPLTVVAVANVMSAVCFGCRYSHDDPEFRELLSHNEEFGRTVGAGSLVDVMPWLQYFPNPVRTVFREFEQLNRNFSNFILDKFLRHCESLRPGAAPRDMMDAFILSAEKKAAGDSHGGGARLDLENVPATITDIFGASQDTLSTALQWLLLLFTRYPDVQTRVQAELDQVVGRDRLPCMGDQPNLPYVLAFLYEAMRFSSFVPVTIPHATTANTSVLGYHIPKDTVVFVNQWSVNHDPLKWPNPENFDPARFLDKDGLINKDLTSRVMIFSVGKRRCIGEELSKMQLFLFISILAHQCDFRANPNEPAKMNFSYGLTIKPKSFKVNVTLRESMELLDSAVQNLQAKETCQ
As to the kind of experiment: Mechanism based inhibition of human cytochrome P450 1B1 measured by 7-ethoxyresorufin O-deethylation (EROD). The data set is classed as ADME.

Data set [15] addresses T8, Cytochrome P450 1A1 (Rattus norvegicus, UniProt P00185).
T8 sequence (P00185 whole entry): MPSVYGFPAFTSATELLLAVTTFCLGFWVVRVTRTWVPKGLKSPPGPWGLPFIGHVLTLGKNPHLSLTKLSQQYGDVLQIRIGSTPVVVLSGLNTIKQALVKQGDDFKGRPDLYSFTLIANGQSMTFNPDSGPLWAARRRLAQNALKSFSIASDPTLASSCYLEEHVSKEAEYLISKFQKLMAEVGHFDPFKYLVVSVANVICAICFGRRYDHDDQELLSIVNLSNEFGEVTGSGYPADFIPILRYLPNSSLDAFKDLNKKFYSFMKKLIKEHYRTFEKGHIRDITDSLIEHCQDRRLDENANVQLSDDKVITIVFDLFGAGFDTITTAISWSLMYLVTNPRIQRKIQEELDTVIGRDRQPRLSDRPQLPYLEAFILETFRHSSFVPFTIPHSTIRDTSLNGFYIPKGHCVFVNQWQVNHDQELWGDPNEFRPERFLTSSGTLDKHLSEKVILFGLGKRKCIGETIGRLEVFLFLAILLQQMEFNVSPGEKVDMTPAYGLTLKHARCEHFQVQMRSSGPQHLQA
Briefly: Mechanism based inhibition of rat cytochrome P450 CYP1A1. The data set is classed as ADME.

The target in data set [16] is Cytochrome P450 11B1, mitochondrial (Bos taurus, UniProt P15150). As to the kind of experiment: Mechanism based inhibition of bovine cytochrome P450 CYP11B1. The data set is classed as ADME. As to conditions: cattle.
For data set [17], the target named is T9, CYP1A1 (Rattus norvegicus, UniProt P00185).
T9 sequence (P00185 whole entry): T8 sequence (P00185 whole entry)
Briefly: (§6) Mechanism based inhibition of rat cytochrome P450 CYP1A1 measured by ethoxyresorufin O-deethylation warfarin R-6 and R-8 hydroxylation. The data set is classed as ADME. As to conditions: rat.

Data set [18] deals with T8, Cytochrome P450 1A1. Described as §6. The data set is classed as ADME.

T2 sequence (P24460 whole entry): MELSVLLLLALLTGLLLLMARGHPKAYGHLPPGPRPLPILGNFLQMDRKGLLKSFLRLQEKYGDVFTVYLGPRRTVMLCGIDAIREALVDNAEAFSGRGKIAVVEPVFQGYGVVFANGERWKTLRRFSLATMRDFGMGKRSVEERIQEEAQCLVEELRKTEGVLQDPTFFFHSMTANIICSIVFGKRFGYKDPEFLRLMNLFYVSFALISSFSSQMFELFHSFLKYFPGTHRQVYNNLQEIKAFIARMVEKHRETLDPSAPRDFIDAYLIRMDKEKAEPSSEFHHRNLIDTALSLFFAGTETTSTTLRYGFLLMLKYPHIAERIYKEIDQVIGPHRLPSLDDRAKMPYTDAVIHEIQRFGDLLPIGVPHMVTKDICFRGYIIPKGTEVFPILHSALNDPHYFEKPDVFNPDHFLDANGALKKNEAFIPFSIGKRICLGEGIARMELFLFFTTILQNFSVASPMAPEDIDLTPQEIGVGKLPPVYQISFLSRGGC
T3 sequence (P24460 whole entry): as above
T1 sequence (P05182 whole entry): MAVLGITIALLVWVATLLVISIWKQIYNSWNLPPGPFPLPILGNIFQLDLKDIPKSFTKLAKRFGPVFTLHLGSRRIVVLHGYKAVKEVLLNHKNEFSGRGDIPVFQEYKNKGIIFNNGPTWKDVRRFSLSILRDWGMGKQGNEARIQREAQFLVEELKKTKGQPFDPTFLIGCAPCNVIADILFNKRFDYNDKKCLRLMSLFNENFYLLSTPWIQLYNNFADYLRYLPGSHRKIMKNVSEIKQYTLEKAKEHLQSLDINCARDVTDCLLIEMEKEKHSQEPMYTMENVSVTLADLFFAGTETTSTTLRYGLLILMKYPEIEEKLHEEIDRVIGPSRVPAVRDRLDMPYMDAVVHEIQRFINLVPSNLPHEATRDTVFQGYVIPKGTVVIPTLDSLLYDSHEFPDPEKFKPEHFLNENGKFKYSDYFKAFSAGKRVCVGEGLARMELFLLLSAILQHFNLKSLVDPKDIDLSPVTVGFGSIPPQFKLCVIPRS
Cytochrome P450 11B1, mitochondrial, sequence (P15150 whole entry): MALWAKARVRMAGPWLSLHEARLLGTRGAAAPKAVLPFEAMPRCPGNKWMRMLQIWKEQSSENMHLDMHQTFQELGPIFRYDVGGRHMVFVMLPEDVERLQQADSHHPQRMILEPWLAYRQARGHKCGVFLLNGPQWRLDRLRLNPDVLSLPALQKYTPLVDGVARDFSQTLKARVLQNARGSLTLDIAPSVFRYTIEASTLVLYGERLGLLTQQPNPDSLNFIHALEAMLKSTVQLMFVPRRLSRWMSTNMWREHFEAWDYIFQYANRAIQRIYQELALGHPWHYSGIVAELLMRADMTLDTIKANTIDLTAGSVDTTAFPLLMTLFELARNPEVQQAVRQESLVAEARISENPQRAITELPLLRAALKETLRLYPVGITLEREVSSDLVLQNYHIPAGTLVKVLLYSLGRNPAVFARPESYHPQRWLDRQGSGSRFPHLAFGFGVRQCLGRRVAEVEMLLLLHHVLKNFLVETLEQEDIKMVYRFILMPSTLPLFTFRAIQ
Cytochrome P450 3A12, sequence (P24463 whole entry): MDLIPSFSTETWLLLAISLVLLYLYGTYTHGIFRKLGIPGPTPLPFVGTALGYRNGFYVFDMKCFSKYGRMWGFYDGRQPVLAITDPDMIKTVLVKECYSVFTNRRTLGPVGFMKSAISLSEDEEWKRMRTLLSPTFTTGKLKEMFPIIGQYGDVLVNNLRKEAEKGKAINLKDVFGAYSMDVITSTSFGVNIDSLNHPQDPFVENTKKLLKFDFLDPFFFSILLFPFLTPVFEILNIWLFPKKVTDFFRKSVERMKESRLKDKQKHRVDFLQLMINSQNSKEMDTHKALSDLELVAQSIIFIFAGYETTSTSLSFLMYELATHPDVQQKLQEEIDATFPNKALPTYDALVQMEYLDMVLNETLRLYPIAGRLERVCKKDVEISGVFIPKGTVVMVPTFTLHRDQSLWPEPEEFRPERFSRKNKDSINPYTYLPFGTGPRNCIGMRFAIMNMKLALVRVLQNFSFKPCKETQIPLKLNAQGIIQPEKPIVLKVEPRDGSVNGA
CYP2E1, sequence (P05182 whole entry): as the sequence (P05182 whole entry) above

By kinact is commonly meant the maximal first-order rate at which the target is inactivated. On to `C=CCS(=O)(=O)CC=C` [DIALLYLSULFONE], for which the mechanism based inhibition entry in [1] was “Cytochrome P450 mechanistic inhibitor: PMID 9084912”. Moreover, the kinact in data set [2] was 0.00533 s⁻¹. Besides, the Ki in data set [3] was 188000 nM.

Take `CC(Nn1nnc2ccccc21)c1ccccc1` (centres undefined): the kinact was 0.00933 s⁻¹ in [4] and 0.025 s⁻¹ in [6]. Also, the Ki in data set [5] was 460 nM; in data set [7] it was 350 nM. Besides, the mechanism based inhibition result in data set [8] was “Cytochrome P450 mechanistic inhibitor: PMID 15677349”.

For `CC#Cc1ccc(-c2ccccc2)cc1`, the results for the kinact in data set [9] and in data set [12] were 0.00667 s⁻¹ and 0.00167 s⁻¹, respectively. In addition, the Ki in data set [10] was determined as 220 nM; in data set [13] it was 13 nM. Moreover, the mechanism based inhibition entry in data set [10] was “Cytochrome P450 mechanistic inhibitor: PMID 9760279”; in [11], “Cytochrome P450 mechanistic inhibitor: PMID 9760279”; in data set [14], “Cytochrome P450 mechanistic inhibitor: PMID 9760279”; in [15], “Cytochrome P450 mechanistic inhibitor: PMID 9074808”.

In the case of `C=CC[C@]12CC[C@H]3[C@@H](CCC4=CC(=O)CC[C@@]43C)[C@@H]1CC[C@@H]2C(C)=O`, in data set [16], the mechanism based inhibition result is on record as “Cytochrome P450 mechanistic inhibitor: PMID 8645613”.

For `O=C(NCCc1ccc([N+](=O)[O-])cc1)C(Cl)Cl`, the kinact in data set [17] is 0.00867 s⁻¹. Besides, in data set [18], the Ki was 2700 nM.
